Laboratory results as given in patent US20060258735A1, “1,3-Bis-(substituted-phenyl)-2-propen-1-ones and their use to treat VCAM-1 mediated disorders” (priority 2000, published 2006).
Structures can show the parent of a compound that is named as a salt. Where two headings read alike, the source gives them in different places.

How the values were obtained:
[1] = system: human aortic smooth muscle cells; test: In vitro smooth muscle cell activity assay (3H-thymidine incorporation, serum stimulated); format: cell-based; conditions: human aortic smooth muscle cells stimulated with 5% serum
Protocol: Cultured human aortic smooth muscle cells were seeded in 24-well plates. When cells reached 80% confluency, they were made quiescent by changing media to 0.2% serum (as compared to 5% serum in normal culture media) for 48 hours. The cells were then stimulated by addition of 5% serum in the presence or absence of compounds dissolved in DMSO. To establish a dose curve and IC50 for each compound, multiple concentrations in 5-fold increments were used. After 20 hr incubation, 3H-thymidine (0.5 μCi/per well) was added to the cells for 4 hours of labeling. Washed cells were then lysed in NaOH and, the amount of 3H-thymidine incorporation was determined. Results are expressed as IC50 values (the amount of compound (µM) required to achieve a 50% reduction compared to control (cells stimulated with 5% serum only)).

VCAM-1 = test: In vitro VCAM-1 assay (TNF stimulated vascular endothelial cells); format: cell-based; conditions: Endothelial cell
Protocol: The ability of a compound described herein to inhibit the expression of VCAM-1 in a host can be assessed using any known method, including that described in detail below.
Two to four confluent P150 plates were trypsinized and the cells transferred to a 50 mL conical centrifuge tube. The cells were pelleted, resuspended and counted using the trypan blue exclusion method.
Cells were resuspended at a concentration of 36,000 cells/mL and 1 mL was aliquoted per well.
Cells were split into 24 well tissue culture plates. The cells in each well should be approximately 90-95% confluent by the following day. Cells should not be older than passage 8.
Compounds were initially screened at 50 μM and 10 μM. A 50 mM stock solution for each compound was prepared in culture medium. The stock solution was diluted to 5 mM and 1 mM. When 10 μL of the 5 mM solution was added to the well (1 mL medium/well), the final concentration was 50 μM. Adding 10 μL of the 1 mM solution to the well provides a final concentration of 10 μM.
Compounds which will not go into solution in culture medium were resuspended in DMSO at a concentration of 25 mM. The stock solution was then diluted to the final concentration in culture medium. The old medium was aspirated and 1 mL of the new medium with the compound was added. For example, if the final concentration was 50 μM, the 2 μL of the 25 mM stock was added per mL of culture medium. […] was diluted for lower concentrations.
The compounds were added to the plate (each compound is done in duplicate). One plate was prepared for VCAM expression and one plate was prepared for ICAM expression.
Immediately after the compounds weree added, TNF was added to each well 100 units/mL TNF was usually added to each well. Since each lot of TNF varies in the number of units, each new lot was titrated to determine the optimum concentration. Therefore this concentration changed. If 100 units/mL was being used, TNF was dilted to 10 units/μL and 10 μL added to each well.
The plates were incubated at 37° C., 5% CO2 overnight (approximately 16 hours). The next day the plates were checked under the microscope to see if there were any visual signs of toxicity. Records were made of any cell death, debris, or morphology changes, as well as insoluble compounds (particulate or turbity).
The degree of inhibition of the compounds of formula (I) was determined by the assays.

MCP-1 = test: In vitro MCP-1 activity assay (TNF-α stimulated endothelial cells, MCP-1 immunoassay); format: cell-based; conditions: Endothelial cell; human endothelial cells stimulated with TNF-α (1 ng/ml), approximately 16 hours, MCP-1 immunoassay of culture media
Protocol: Cultured human endothelial cells were seeded in 96-well plates. On the following day cells were stimulated with TNF-α (1 ng/ml) in the presence or absence of compounds dissolved in DMSO. To establish a dose curve and IC50 for each compound, multiple concentrations in 2-fold increments were used. Cells were exposed to TNF-α and compounds for approximately 16 hours. The next day the cells were visually examined via light microscopy to score for visual signs of toxicity. Cell culture media, diluted 1:10, was analyzed by an MCP-1 immunoassay kit (R & D Systems). This assay is a sandwich immunoassay using immobilized anti-MCP-1 antibody in 96-well plate to capture secreted MCP-1 in cell culture media. Captured MCP-1 is subsequently detected with a horse radish peroxidase-conjugated anti-MCP-1 antibody for color development. Results are expressed as IC50 values (the amount of compound (µM) required to achieve a 50% reduction compared to control (cells stimulated with TNF-α only)).

[2] = degree of inhibition of VCAM-1 expression, TNF stimulated endothelial cells, approximately 16 hours, read-out: VCAM-1 (µM)
[3] = TNF stimulated cells, overnight (approximately 16 hours), read-out: VCAM-1 IC50

SMILES | melting point | IC50 [1] [nM] | further results
COc1cccc(-c2ccc(C(=O)C=Cc3cc(-c4cccs4)ccc3OC)c(OC)c2)c1 [Example 21, 3-[2-methoxy-5-(thien-2-yl)phenyl]-1-[2-methoxy-4-(3-methoxyphenyl)phenyl]-2-propen-1-one] | 97 to 107 °C | – | –
COc1cc(OC)c(-c2cccs2)cc1C=CC(=O)c1ccc(OC)c(OC)c1OC [Example 41, 3-[2,4-dimethoxy-5-(thien-2-yl)phenyl]-1-(2,3,4-trimethoxyphenyl)-2-propen-1-one] | – | 1250 | –
COc1cc(C(=O)C=Cc2cc(OC)c(OC)c(-c3cc4ccccc4s3)c2)cc(OC)c1OC [Example 4, 3-[5-(benzo[b]thien-2-yl)-3,4-dimethoxyphenyl]-1-(3,4,5-trimethoxyphenyl)-2-propen-1-one] | 150 to 151 °C | – | –
COc1cc(OCC(=O)O)c(C=CC(=O)c2cc(OC)c(OC)c(OC)c2)cc1-c1cc2ccccc2s1 [3-[5-(benzo[b]thien-2-yl)-2-carboxymethoxy-4-methoxyphenyl]-1-(3,4,5-trimethoxyphenyl)-2-propen-1-one] | – | – | IC50 (VCAM-1; [3]): 8300 nM
COc1cc(OC)c(-c2cc3ccccc3s2)cc1/C=C/C(=O)c1cc(OC)c(OC)c(OC)c1 [Example 6, 3-[5-(benzo[b]thien-2-yl)-2,4-dimethoxyphenyl]-1-(3,4,5-trimethoxyphenyl)-2-propen-1-one] | – | 330 | IC50 (MCP-1): > 50000 nM
COc1ccc(-c2cccs2)cc1/C=C/C(=O)c1ccc(-c2cccs2)cc1OC [Example 58] | 30 to 50 °C | – | –
COc1cc(OCC(=O)O)c(C=CC(=O)c2cc(OC)c(OC)c(OC)c2)cc1-c1cc2ccccc2s1 (as salt: sodium) [3-[5-(benzo[b]thien-2-yl)-2-carboxymethoxy-4-methoxyphenyl]-1-(3,4,5-trimethoxyphenyl)-2-propen-1-one] | 255 to 257 °C | – | –
COc1ccc(-c2cccs2)cc1C=CC(=O)c1ccc(Cl)c(Cl)c1O.[Na] | > 260 °C | – | –
COc1ccc(-c2cccs2)cc1C=CC(=O)c1cc(OC)c(OCc2cccs2)cc1OC [Example 17, 3-[2-methoxy-5-(thien-2-yl)phenyl]-1-(2,5-dimethoxy-4-(thien-2-ylmethoxy)phenyl)-2-propen-1-one] | 54 to 73 °C | – | –
COc1cc2c(cc1OC)C(=O)C(=Cc1cc(OC)c(OC)c(-c3cccs3)c1)CC2 [Example 54] | 192 to 205 °C | – | IC50 (VCAM-1; [2]): 2000 nM
COc1cc(OCC(=O)O)c(/C=C/C(=O)c2cc(OC)c(OC)c(OC)c2)cc1-c1cc2ccccc2s1 [Example 62, 3-[5-(Benzo[b]thien-2-yl)-2-carboxymethoxy-4-methoxyphenyl]-1-(3,4,5-trimethoxyphenyl)-2-propen-1-one, sodium salt] | – | 1250 | –
COc1ccc(-c2cccs2)cc1C=CC(=O)c1ccc(OC)c(OC)c1 [Example 9, 3-[2-methoxy-5-(thien-2-yl)phenyl]-1-(3,4-dimethoxyphenyl)-2-propen-1-one] | – | 1150 | IC50 (MCP-1): 10000 nM
COc1cc(OC)c(-c2cccs2)cc1C=CC(=O)c1cc(OC)c(OC)c(OC)c1 [Example 5, 3-[2,4-dimethoxy-5-(thien-2-yl)phenyl]-1-(3,4,5-trimethoxyphenyl)-2-propen-1-one] | 75 to 80 °C | 450 | –
COc1cc(OC)c(-c2cc3ccccc3s2)cc1C=CC(=O)c1cc(OC)c(OCCN2CCOCC2)c(OC)c1 [Example 43, 3-[5-(benzo[b]thien-2-yl)-2,4-dimethoxyphenyl]-1-[3,5-dimethoxy-4-(2-morpholinoethoxy)phenyl]-2-propen-1-one] | 111 to 113 °C | – | –
COc1cc(OC)c(-c2cc3ccccc3s2)cc1C=CC(=O)c1cc(OC)c(OCC(=O)[O-])c(OC)c1.[Na+] [Example 61, 3-[5-(Benzo[b]thien-2-yl)-2,4-dimethoxyphenyl]-1-(4-carboxymethoxy-3,5-dimethoxyphenyl)-2-propen-1-one, sodium salt] | 191 to 196 °C (dec.) | 450 | –
COc1ccc(-c2cccs2)cc1C=CC(=O)c1ccc(I)cc1OC [Example 18, 3-[2-methoxy-5-(thien-2-yl)phenyl]-1-(4-iodo-2-methoxyphenyl)-2-propen-1-one] | 150 to 155 °C | – | –
COc1ccc(-c2cccs2)cc1C=CC(=O)c1cc(OC)c(OC)c(OC)c1 [Example 7, 3-[2-methoxy-5-(thien-2-yl)phenyl]-1-(3,4,5-trimethoxyphenyl)-2-propen-1-one] | – | 1530 | IC50 (MCP-1): 8000 nM
COc1cc(C=CC(=O)c2cc(OC)c(OC)c(OC)c2)cc(Br)c1OC [3-(3-bromo-4,5-dimethoxyphenyl)-1-(3,4,5-trimethoxyphenyl)-2-propen-1-one] | – | – | IC50 (VCAM-1; [3]): 4000 nM
COc1cc(C=CC(=O)c2ccc(OC)c(OC)c2OC)cc(-c2cccs2)c1OC [Example 2, 3-[3,4-dimethoxy-5-(thien-2-yl)phenyl]-1-(2,3,4-trimethoxyphenyl)-2-propen-1-one] | 94 to 97 °C | 400 | IC50 (MCP-1): 5000 nM
COc1ccc(-c2cccs2)cc1C=C1Cc2cc(OC)c(OC)cc2C1=O [Example 55] | 164 to 172 °C | – | IC50 (VCAM-1; [2]): > 50000 nM

Second part, led by results:

melting point | IC50 [1] [nM] | SMILES | further results
120 to 124 °C | – | COc1cc(C=CC(=O)c2ccc(OC)c(OC)c2OC)cc(-c2cc3ccccc3s2)c1OC [Example 49, 3-[5-(benzo[b]thien-2-yl)-3,4-dimethoxyphenyl]-1-(2,3,4-trimethoxyphenyl)-2-propen-1-one] | –
216 to 222 °C | – | COc1cc(C=C2Cc3cc(-c4cccs4)ccc3C2=O)cc(OC)c1OC [Example 53] | IC50 (VCAM-1; [2]): > 50000 nM
100 to 105 °C | – | COc1ccc(-c2cccs2)cc1C=CC(=O)c1ccc(F)c(F)c1 [Example 35, 3-[2-methoxy-5-(thien-2-yl)phenyl]-1-(3,4-difluorophenyl)-2-propen-1-one] | –
152 to 163 °C | – | COc1ccc(-c2cccs2)cc1C=CC(=O)c1ccc(Cl)c(Cl)c1O [Example 36, 3-[2-methoxy-5-(thien-2-yl)phenyl]-1-(3,4-dichloro-2-hydroxyphenyl)-2-propen-1-one] | –
145 to 153 °C | – | COc1cc(OC)c(-c2cc3ccccc3s2)cc1C=CC(=O)c1cc(OC)c(OCC(=O)O)c(OC)c1 [Example 44, 3-[5-(benzo[b]thien-2-yl)-2,4-dimethoxyphenyl]-1-(4-carboxymethoxy-3,5-dimethoxyphenyl)-2-propen-1-one] | –
– | 4530 | COc1ccc(C(=O)C=Cc2cc(-c3cccs3)ccc2OC)cc1 [Example 11, 3-[2-methoxy-5-(thien-2-yl)phenyl]-1-(4-methoxyphenyl)-2-propen-1-one] | IC50 (MCP-1): 10000 nM
